According to ChEMBL document CHEMBL1201862, “PubChem BioAssay data set” (2004):
Calls of active or inactive are those of the source.

How the values were obtained:
[1] = target: Alkaline phosphatase, placental type (Homo sapiens, UniProt P05187); assay: PLAP enzyme inhibitors, confirmation, biochemical, luminescence (AID 1512); assay type: functional
[2] = target: Alkaline phosphatase, tissue-nonspecific isozyme (Homo sapiens, UniProt P05186); assay: human TNAP enzyme inhibitors, SAR follow-up, biochemical, luminescent, dose response (AID 1056)
Alkaline phosphatase, tissue-nonspecific isozyme, sequence (P05186 whole entry): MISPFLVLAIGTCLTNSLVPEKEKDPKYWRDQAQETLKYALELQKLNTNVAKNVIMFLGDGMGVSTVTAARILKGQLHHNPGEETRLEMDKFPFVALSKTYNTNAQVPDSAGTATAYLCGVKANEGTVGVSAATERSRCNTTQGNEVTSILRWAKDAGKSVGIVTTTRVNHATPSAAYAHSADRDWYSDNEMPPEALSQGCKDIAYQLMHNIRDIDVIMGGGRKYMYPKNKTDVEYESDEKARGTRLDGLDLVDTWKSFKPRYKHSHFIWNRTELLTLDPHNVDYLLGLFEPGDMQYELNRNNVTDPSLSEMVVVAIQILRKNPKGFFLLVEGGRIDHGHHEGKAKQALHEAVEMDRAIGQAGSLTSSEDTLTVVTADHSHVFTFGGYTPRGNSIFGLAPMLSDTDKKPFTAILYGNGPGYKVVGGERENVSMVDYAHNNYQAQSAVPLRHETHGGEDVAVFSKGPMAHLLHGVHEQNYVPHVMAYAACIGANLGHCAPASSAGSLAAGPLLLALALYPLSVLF

[3] = HEp-2 cell cytotoxicity, dose response, cytotoxicity control for RSV inhibitor project, HTS (AID 2410); assay type: functional; settings: human respiratory syncytial virus
[4] = target: T1, Ubiquitin-conjugating enzyme E2 N (Homo sapiens, UniProt P61088); assay type: functional;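 note: Dose-response confirmation in a TR-FRET assay detecting UBC13-driven polyubiquitin chain formation, inhibition measured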
T1 sequence (P61088 whole entry): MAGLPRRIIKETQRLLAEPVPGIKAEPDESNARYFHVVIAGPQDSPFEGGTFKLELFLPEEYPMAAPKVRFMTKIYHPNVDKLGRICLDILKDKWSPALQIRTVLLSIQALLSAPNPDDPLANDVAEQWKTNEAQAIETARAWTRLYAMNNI

[5] = target: T2, Short transient receptor potential channel 4 (Mus musculus, UniProt Q9QUQ5); assay: mouse TRPC4 channel activators, dose response, cell-based, HEK293 TRPC4/mu-opioid, Fluo-4 calcium (AID 434937); assay type: functional
T2 sequence (Q9QUQ5 whole entry): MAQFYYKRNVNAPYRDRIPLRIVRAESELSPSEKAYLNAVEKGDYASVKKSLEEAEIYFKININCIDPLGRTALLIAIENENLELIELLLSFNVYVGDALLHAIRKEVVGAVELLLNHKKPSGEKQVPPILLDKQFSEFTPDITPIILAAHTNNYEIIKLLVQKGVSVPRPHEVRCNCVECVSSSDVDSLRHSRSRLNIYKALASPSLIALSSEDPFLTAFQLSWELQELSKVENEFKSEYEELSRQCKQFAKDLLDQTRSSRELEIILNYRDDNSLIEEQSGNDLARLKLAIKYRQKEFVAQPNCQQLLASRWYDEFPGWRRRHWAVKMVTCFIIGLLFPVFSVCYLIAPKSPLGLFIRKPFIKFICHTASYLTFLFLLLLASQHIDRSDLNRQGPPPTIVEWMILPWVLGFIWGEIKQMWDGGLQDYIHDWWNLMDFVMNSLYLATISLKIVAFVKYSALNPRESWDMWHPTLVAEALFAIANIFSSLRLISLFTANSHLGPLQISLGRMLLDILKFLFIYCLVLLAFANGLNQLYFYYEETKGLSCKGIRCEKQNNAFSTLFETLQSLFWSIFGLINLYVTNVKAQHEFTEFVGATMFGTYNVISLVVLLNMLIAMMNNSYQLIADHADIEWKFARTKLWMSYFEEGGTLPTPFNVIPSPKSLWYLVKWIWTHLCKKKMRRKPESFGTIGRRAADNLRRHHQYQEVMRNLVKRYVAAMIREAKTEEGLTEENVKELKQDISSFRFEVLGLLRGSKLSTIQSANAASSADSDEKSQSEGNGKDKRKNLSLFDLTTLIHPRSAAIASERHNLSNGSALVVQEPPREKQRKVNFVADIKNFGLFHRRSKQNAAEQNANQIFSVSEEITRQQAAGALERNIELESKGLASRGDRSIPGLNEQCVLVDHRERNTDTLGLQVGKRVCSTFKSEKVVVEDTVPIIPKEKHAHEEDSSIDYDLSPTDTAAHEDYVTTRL

[6] = target: T3, Type-1 angiotensin II receptor (Homo sapiens, UniProt P30556); assay: AT1 receptor agonists, dose response, selectivity assay for APJ receptor agonist project, cell-based, uHTS hits (AID 488865); assay type: functional;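 note: beta-arrestin recruitment to AT1 measured by enzyme fragment complementation luminescence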
T3 sequence (P30556 whole entry): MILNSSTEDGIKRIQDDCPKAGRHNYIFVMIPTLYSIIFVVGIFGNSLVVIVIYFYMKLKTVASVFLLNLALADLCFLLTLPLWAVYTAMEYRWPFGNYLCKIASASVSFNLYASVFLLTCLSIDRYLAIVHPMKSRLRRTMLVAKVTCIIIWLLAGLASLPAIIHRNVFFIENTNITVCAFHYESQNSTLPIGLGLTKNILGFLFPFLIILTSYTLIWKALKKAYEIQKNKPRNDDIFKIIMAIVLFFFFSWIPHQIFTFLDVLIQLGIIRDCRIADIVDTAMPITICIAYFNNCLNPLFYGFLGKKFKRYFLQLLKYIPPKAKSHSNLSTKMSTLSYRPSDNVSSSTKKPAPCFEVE

[7] = target: T4, Apoptotic protease-activating factor 1 (Homo sapiens, UniProt O14727); assay type: functional
T4 sequence (O14727 whole entry): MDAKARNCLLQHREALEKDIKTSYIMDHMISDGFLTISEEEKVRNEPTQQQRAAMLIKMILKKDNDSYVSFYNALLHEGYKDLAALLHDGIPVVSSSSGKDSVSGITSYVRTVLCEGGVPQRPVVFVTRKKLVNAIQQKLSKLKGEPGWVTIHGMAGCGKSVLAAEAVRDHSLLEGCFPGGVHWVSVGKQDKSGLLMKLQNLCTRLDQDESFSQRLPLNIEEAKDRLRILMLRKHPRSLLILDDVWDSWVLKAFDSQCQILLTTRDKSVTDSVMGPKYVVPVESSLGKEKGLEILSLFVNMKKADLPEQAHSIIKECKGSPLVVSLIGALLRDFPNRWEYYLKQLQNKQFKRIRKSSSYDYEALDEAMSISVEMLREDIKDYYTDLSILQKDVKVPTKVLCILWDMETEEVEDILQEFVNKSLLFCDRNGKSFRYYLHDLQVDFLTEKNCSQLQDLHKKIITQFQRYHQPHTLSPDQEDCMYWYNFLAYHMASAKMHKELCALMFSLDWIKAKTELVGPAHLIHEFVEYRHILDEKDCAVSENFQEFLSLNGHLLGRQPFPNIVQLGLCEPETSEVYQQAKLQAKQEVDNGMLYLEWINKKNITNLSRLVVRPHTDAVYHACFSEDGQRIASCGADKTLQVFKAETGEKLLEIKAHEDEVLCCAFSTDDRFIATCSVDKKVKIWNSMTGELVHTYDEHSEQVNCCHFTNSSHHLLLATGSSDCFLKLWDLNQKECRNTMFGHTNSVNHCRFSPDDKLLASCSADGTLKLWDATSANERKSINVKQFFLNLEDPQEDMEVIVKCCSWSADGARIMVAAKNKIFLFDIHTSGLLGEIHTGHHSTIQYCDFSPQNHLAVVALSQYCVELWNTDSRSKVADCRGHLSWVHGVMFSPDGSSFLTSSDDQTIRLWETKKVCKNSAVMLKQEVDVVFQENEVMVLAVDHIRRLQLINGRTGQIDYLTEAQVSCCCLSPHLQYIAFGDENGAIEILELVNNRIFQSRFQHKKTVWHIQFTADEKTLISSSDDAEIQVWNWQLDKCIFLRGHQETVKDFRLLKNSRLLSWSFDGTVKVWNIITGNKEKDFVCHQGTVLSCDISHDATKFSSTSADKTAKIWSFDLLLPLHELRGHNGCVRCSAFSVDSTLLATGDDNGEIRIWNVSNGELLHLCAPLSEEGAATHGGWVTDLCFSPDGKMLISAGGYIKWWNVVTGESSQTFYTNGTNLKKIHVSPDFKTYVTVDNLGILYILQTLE

[8] = target: Delta-type opioid receptor (Homo sapiens, UniProt P41143); assay: Counterscreen for agonists of heterodimerization of the mu 1 (OPRM1) and delta 1 (OPRD1) opioid receptors: Luminescence-based cell-based high throughput dose response assay to identify agonists of OPRD1 homodimerization. [Related pubchem assays (depositor defined):AID504326, AID504355, AID504692, AID504904, AID504905]; assay type: functional
Delta-type opioid receptor, sequence (P41143 whole entry): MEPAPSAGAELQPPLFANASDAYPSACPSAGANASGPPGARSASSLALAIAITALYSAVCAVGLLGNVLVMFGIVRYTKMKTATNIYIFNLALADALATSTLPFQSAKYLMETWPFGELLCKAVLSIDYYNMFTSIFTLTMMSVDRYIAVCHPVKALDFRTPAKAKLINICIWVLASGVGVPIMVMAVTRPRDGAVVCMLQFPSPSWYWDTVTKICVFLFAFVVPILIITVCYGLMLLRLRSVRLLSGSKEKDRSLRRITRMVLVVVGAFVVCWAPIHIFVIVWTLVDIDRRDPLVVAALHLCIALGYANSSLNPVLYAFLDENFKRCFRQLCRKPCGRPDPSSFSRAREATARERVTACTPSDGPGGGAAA

Mu-type opioid receptor = Mu-type opioid receptor (Homo sapiens, UniProt P35372); assay: Counterscreen for agonists of heterodimerization of the mu 1 (OPRM1) and delta 1 (OPRD1) opioid receptors: Luminescence-based cell-based high throughput dose response assay to identify agonists of OPRM1 homodimerization.; assay type: functional;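 note: U2OS cells expressing OPRM1 and beta-arrestin as split beta-galactosidase partners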
Mu-type opioid receptor, sequence (P35372 whole entry): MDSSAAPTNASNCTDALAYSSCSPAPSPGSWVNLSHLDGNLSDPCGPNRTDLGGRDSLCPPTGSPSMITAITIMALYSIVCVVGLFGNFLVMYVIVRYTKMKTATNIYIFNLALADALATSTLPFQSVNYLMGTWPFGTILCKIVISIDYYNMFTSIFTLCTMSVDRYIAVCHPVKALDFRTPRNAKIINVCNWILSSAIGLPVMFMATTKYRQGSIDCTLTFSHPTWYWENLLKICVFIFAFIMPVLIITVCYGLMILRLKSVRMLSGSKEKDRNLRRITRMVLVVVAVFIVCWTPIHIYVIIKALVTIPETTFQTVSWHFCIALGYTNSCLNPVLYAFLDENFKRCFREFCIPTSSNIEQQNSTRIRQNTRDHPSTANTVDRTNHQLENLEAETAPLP

[9] = target: 5-hydroxytryptamine receptor 5A (Homo sapiens, UniProt P47898); assay: Counterscreen for agonists of OPRM1-OPRD1 heterodimerization: luminescence-based cell-based high throughput dose response assay to identify agonists of 5-hydroxytryptamine (serotonin) 5A receptor (HTR5A). [Related pubchem assays (depositor defined):AID504326, AID504355, AID504692, AID504904, AID504905]; assay type: functional
5-hydroxytryptamine receptor 5A, sequence (P47898 whole entry): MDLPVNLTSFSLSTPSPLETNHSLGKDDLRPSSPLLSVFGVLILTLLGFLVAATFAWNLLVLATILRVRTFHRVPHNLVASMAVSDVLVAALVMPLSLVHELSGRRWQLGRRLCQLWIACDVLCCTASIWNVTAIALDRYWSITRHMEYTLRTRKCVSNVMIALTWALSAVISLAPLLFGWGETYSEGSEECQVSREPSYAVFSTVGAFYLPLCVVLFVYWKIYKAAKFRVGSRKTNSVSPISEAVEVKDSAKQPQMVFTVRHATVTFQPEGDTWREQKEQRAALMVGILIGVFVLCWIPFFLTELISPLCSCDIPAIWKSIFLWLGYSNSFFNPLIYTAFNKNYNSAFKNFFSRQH

Alkaline phosphatase, placental type, sequence (P05187 whole entry): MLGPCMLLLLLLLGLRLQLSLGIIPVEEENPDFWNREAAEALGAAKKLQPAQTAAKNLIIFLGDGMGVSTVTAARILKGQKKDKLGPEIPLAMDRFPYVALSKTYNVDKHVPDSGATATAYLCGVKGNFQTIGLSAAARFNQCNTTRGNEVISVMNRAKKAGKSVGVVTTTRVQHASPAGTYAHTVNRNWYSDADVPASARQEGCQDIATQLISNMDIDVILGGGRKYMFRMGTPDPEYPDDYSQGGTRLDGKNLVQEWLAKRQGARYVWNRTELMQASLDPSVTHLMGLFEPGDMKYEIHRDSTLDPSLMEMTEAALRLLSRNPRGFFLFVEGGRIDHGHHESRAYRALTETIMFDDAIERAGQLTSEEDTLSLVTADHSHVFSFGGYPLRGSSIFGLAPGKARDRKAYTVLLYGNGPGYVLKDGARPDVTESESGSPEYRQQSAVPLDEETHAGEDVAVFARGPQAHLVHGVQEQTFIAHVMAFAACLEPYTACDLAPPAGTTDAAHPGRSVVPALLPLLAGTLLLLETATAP

Row | Structure (SMILES) | IC50 [1] | IC50 [2] | CC50 [3] | IC50 [4] | EC50 [5] | EC50 [6] | IC50 [7] | EC50 [8] | EC50 (Mu-type opioid receptor) | EC50 [9]
1 | O=C(CNc1ccncc1)c1ccc(O)c(O)c1 | > 100 µM (inactive) | > 100 µM (inactive) | – | – | – | – | – | – | – | –
2 | CN(C)CCCN(C(=O)c1ccc(S(=O)(=O)N2CCc3ccccc3C2)cc1)c1nc2ccc(F)cc2s1 | – | – | 31.1 µM (active) | > 20 µM (inactive) | 0.596 µM (active) | > 100 µM (inactive) | 47.9 µM (active) | > 92.5 µM (inactive) | 3.28 µM (active) | > 92.5 µM (inactive)
